≈ marks a conversion by molar mass, not a printed value.
Tests used:
[1] = tested on: tubulin; details: 20° C.; compared with taxol
[2] = tested on: KB-V1; test: killing of multidrug resistant KB-V1 cells; format: cell-based
[3] = tested on: KB-3-1; test: killing of drug sensitive (non-MDR) KB-3-1 cells; format: cell-based; details: Homo sapiens; KB-3-1 drug sensitive cells, Table III; read-out: KB-3-1 (IC50; nM)
[4] = tested on: L1210 mouse leukemia carcinoma cells; test: cytotoxicity / inhibition of cell proliferation in L1210 leukemia cells; format: cell-based; details: L1210 leukemia, Table I, 50% inhibition of cell proliferation vs untreated control, read-out: L1210 (IC50 μg/ml)
[5] = tested on: A2780 human ovarian carcinoma; test: cytotoxicity in A2780 human ovarian carcinoma cells; format: cell-based; details: A2780 human ovarian carcinoma, Table II; read-out: A2780 (IC50 μg/ml)

Compound | induction of tubulin polymerization in vitro [1] | IC50 ([2]; Homo sapiens, KB-V1 multidrug resistant cells, Table III, read-out: KB-V1 (IC50; nM)) | Ratio: KBV-1/KB-3-1 ([2]; ratio of IC50 KB-V1 to IC50 KB-3-1) | average ratio (IC50 KB-V1/IC50 KB-3-1) ([2]; taxol and taxotere, average) | IC50 [3] | IC50 [4] | IC50 [5]
7-deoxy-7β,8β-methano-taxol | able to induce tubulin polymerization in vitro at 20 °C in a manner very similar to taxol |  |  |  |  |  | 
CC(=O)O[C@@]12CO[C@@H]1C[C@H](O)[C@@]1(C)C(=O)[C@H](O)C3=C(C)[C@@H](OC(=O)[C@H](O)[C@@H](NC(=O)OC(C)(C)C)c4ccccc4)C[C@@](O)([C@@H](OC(=O)c4ccccc4)[C@H]21)C3(C)C [taxotere, reference compound] |  | 1700 nM | 7,570 | 7,570 | 0.25 nM | 0.004 µg/mL (≈ 4.95 nM) | 0.001 to 0.0016 µg/mL (≈ 1.24 to 1.98 nM)

Source: patent publication US5821363A, “Antineoplastic use and pharmaceutical compositions containing them” (priority 1996, dated 1998)
